Patent US8791079B2, “Methods for treating heart failure by inhibiting the mitochondrial sodium-calcium exchanger (mNCE)” (priority 2009, dated 2014)
Where two headings read alike, the source gives them in different places.

Legend:
HF patients = settings: cited from earlier work; for mortality: post hoc analysis of DIG trial
Guinea pig hearts [1] = assay: Hemodynamics of isolated perfused hearts (Langendorff); settings: 25-nM isoproterenol in ouabain-treated hearts, absence (isoproterenol) or presence of CGP-37157
From the text: (§1) Guinea pig hearts were quickly excised under anesthesia and mounted on a modified Langendorff apparatus attached to a Powerlab system (AD Instruments, Colorado Springs, Colo.). Hearts were perfused with gassed (95/5% O2/CO2) control buffer containing: 118-mM NaCl, 24-mM NaHCO3, 1.2-mM KH2PO4, 4.75-mM KCl, 1.2-mM MgSO4, 2.0-mM CaCl2, and 10-mM glucose. A buffer-filled latex balloon (Harvard apparatus) was inserted through the mitral valve into the left ventricle. Hearts were suspended in a buffer-filled heating chamber maintained at 37° C. and two electrodes were placed into the bath for volume-conducted electrocardiogram recordings. Heart rate, left ventricular developed pressure (LVDP), maximal rates of contraction and relaxation (±dP/dt), oxygen consumption, and electrocardiograms (ECG) were recorded on a computer. After a ten-minute equilibration period, hearts were subjected to the following protocol: ten-minute baseline recording while the heart was perfused with control buffer, ten-minute recording while 0.25-μM ouabain with or without 1 μM CGP-37157, and sixty-minute recording while hearts were stimulated with 25-nM isoproterenol. The measurements of hemodynamic parameters were determined by taking the average during the last two minutes before ouabain treatment (baseline) and for two minutes during the maximal effect on LVDP of either ouabain or isoproterenol.
In Table 1A-1C, hemodynamics of isolated perfused hearts were recorded at baseline, with ouabain treatment (1 μM), and with ouabain plus isoproterenol (100 nM) stimulation with or without CGP-37157 (1 μM). HR, heart rate; LVDP, left ventricular developed pressure; Oua: ouabain; CGP: CGP-37157; VF: ventricular fibrillation. *p<0.05 compared to group without CGP; † p<0.05 compared to baseline.

Guinea pig hearts [2] = assay: Oxygen consumption in isolated perfused hearts; settings: ouabain followed by isoproterenol, without (isoproterenol) or with CGP-37157
From the text: as §1
Cardiac O2 concentration was measured with an O2 probe attached to a PowerLab system (AD Instruments). The probe was calibrated with 95% O2-saturated buffer as 100% and 100% N2-saturated buffer as 0%. The molar concentration of O2 consumption was calculated from percentage concentration with the following equation: VO2(μmol/min/g dwt)=CF×(0.02373/22.414)×((760−p)/760)×(ΔO2%/100)/dwt
where CF is coronary flow (mL/min); 0.02373 is the absorption coefficient of O2 in H2O at 37° C.; 22.414 is the volume (L) of 1 mol gas at STP; 760 is 1 atm in mm Hg; p equals 47.067, which is the vapor pressure of H2O at 37° C.; ΔO2% is the difference in O2 percentage concentration between inflow buffer collected from cannula before heart was mounted and outflow buffer collected from pulmonary artery; dwt is dry heart weight.

For `C[C@H]1O[C@@H](OC2[C@@H](O)C[C@H](OC3[C@@H](O)CC(O[C@H]4CC[C@@]5(C)[C@H](CC[C@@H]6[C@@H]5C[C@@H](O)[C@]5(C)[C@@H](C7=CC(=O)OC7)CC[C@]65O)C4)O[C@@H]3C)O[C@@H]2C)C[C@H](O)C1O` (stereo in doubt) [digoxin, 4-[(3S,5R,8R,9S,10S,12R,13S,14S)-3-[(2S,4S,5R,6R)-5-[(2S,4S,5R,6R)-5-[(2S,4S,5R,6R)-4,5-dihydroxy-6-methyl-oxan-2-yl]oxy-4-hydroxy-6-methyl-oxan-2-yl]oxy-4-hydroxy-6-methyl-oxan-2-yl]oxy-12,14-dihydroxy-10,13-dimethyl-1,2,3,4,5,6,7,8,9,11,12,15,16,17-tetradecahydrocyclopenta[a]phenanthren-17-yl]-5H-furan-2-one], the overall mortality (HF patients; DIG trial, HF patients) is given as “did not affect overall mortality”, the mortality (HF patients; SDC ≧1.0 ng/mL) is given as “no effect on mortality” and the mortality (HF patients; serum digoxin concentration (SDC) 0.5-0.9 ng/mL) is given as “reduced mortality of all HF patients”.
For `CC(C)NCC(O)c1ccc(O)c(O)c1` (centres unmarked) [isoproterenol, 4-[1-hydroxy-2-(isopropylamino)ethyl]benzene-1,2-diol, reference compound], the “increase of +dP/dt compared to the level with ouabain treatment” value (Guinea pig hearts [1]) was 57%, the “increase of LVDP compared to the level with ouabain treatment” value (Guinea pig hearts [1]) was “not increased further” and the “increase of heart rate (HR) compared to the level with ouabain treatment” value (Guinea pig hearts [1]) was 28%. For the same compound, the “increase of −dP/dt compared to the level with ouabain treatment” value (Guinea pig hearts [1]) was 52% and the “increase of whole-heart oxygen consumption (VO2) compared to baseline” value (Guinea pig hearts [2]) was 25%.
